Experimental findings from PMC3835719 (MedChemComm, 2013) are described below.

For assay [1], the system named is HT-29 human colon cancer cells. As to the kind of experiment: MTT cell growth inhibition, HT-29 colon cancer cells. It is filed as cell-based. The note with it: for Potency enhancement, Colon HT-29: ratio of IC50 values parent NSAID/NOSH-NSAID, 24 hr.
The test system of assay [2] is Jurkat T human leukemia cells. As to the kind of experiment: MTT cell growth inhibition, Jurkat T leukemia cells. It counts as cell-based. The conditions noted are these: ratio of IC50 values parent NSAID/NOSH-NSAID, 24 hr.
Assay [3] deals with MCF-7 (estrogen receptor positive) breast cancer cells. Kind of assay: MTT cell growth inhibition, MCF-7 breast cancer cells. It is filed as cell-based, human. The conditions noted are these: ratio of IC50 values parent NSAID/NOSH-NSAID, 24 hr.
For assay [4], the system named is BxPC-3 human pancreatic cancer cells. Kind of assay: MTT cell growth inhibition, BxPC-3 pancreatic cancer cells. It is filed as cell-based. The note with it: ratio of IC50 values parent NSAID/NOSH-NSAID, 24 hr.
Assay [5] concerns human mammary epithelial cell line (HMEpC). Kind of assay: Cell growth inhibition, normal mammary epithelial cells. It is filed as cell-based. The conditions noted are these: IC50 at 24h, HMEpC vs MCF-7.
The test system of assay [6] is HT-29 human colon cancer cells. As to the kind of experiment: Proliferation by PCNA antigen expression. It counts as cell-based. The conditions noted are these: at IC50 for cell growth inhibition, 24 hrs.
In assay [7] the test system is HT-29 human colon cancer cells. Kind of assay: Cell cycle phases by PI staining and flow cytometry. The conditions noted are these: at IC50. It counts as cell-based. On the technique in general: In flow cytometry, cells or beads pass a laser one at a time.
The test system of assay [8] is human cancer cell lines of colon, breast, pancreas, and leukemia. As to the kind of experiment: MTT cell growth inhibition, panel of four cancer cell lines. It is filed as cell-based. The conditions noted are these: ratio of IC50 values parent/NOSH compound, 24 h.
Assay [9] concerns human primary pancreatic epithelial cells (HPDE, ACBRI 515). As to the kind of experiment: Cell growth inhibition, normal pancreatic epithelial cells. It counts as cell-based. The conditions noted are these: 24 h, read-out: IC50 for cell growth inhibition, Pancreatic Epithelial HPDE (ACBRI 515).

As to `C[C@H](C(=O)Oc1ccc(-c2cc(=S)ss2)cc1)c1ccc2cc(OC(=O)CCCO[N+](=O)[O-])ccc2c1` [NOSH-NAP, (S)-6-(1-oxo-1-(4-(3-thioxo-3H-1,2-dithiol-5-yl)phenoxy)propan-2-yl) naphthalen-2-yl 4-(nitrooxy) butanoate], the “Fold more potent than the combination (sum of its parts)” value in assay [1] (HT-29, intact molecule vs naproxen plus SNAP and ADT-OH) is listed as “approximately 8000 fold”. In addition, in [1], the “Potency enhancement, Colon HT-29” value is ~34,000. In addition, in assay [2], the “Potency enhancement, Leukemia Jurkats” value was ~25,000. Moreover, in [3], the “Potency enhancement, Breast MCF-7” value was ~20,000. The “Potency enhancement, Pancreas BxPC-3” value in assay [4] is ~16,000. In addition, in [5], the “Fold more potent in breast cancer cell line (MCF-7) than in normal HMEpC cells” value is given as “approximately 115 fold”. The “Reduction of proliferation (PCNA expression)” value in [6] is “approximately 50%”. Further, the “Mode of cell cycle arrest” value in [7] is recorded as “G0/G1 cell cycle block”. For the same compound, the “Enhanced potency over parent compound, range over the cancer cell lines” value in assay [8] is given as 16,000-34,000 fold.
With `CC1=C(CC(=O)Oc2ccc(OC(=O)CCCO[N+](=O)[O-])c(C(=O)Oc3ccc(-c4cc(=S)ss4)cc3)c2)c2cc(F)ccc2/C1=C\c1ccc([S+](C)[O-])cc1` (stereo not drawn) [NOSH-SUL, (Z)-4-(3-thioxo-3H-1,2-dithiol-5-yl) phenyl 5-(2-(5-fluoro-2-methyl-1-(4-(methylsulfinyl)benzylidene)-1H-inden-3-yl)acetoxy)-2-((4-(nitrooxy)butanoyl)oxy) benzoate], in assay [1], the “Potency enhancement, Colon HT-29” value was ~9,000. In assay [2], the “Potency enhancement, Leukemia Jurkats” value is on record as ~2,500. For the same compound, the “Potency enhancement, Breast MCF-7” value in [3] is ~9,650. Moreover, the “Potency enhancement, Pancreas BxPC-3” value in assay [4] is listed as ~8,200. The “Fold more potent in breast cancer cell line (MCF-7) than in normal HMEpC cells” value in [5] is listed as “about 150 fold”. The IC50 – broadly, the midpoint of a concentration-inhibition curve – in assay [9] was over 25 µM. The “Reduction of proliferation (PCNA expression)” value in assay [6] was “approximately 50%”. Besides, the “Mode of cell cycle arrest” value in assay [7] is “G2/M block”. Also, the “Enhanced potency over parent compound, range over the cancer cell lines” value in assay [8] is given as 2,500-9,650 fold.
